Measured values taken from patent publication US20240016744A1, “NALTREXONE AND RISPERIDONE COMBINATION SUSTAINED-RELEASE COMPOSITION” (SHENZHEN SCIENCARE MEDICAL INDUSTRIES CO.,, priority 2020, published 2024).

Tested on: methylamphetamine-induced behavioral sensitization (spontaneous activities of the mice)
Test: Animal pharmacodynamic evaluation: methylamphetamine-induced behavioral sensitization, spontaneous activity
Assay type: in vivo, SD mice
Details: methylamphetamine 2 mg/kg i.p., no implant, from day 7; FIG. 9
From the text: All mice were bred under the same conditions. The product of the present disclosure was surgically implanted into each mouse in a model group before an experiment. Except implantation of the product of the present disclosure, other experimental conditions of a positive control group were the same as those of the model group. Mice in a negative control group were normally bred without undergoing experimental treatment. Behavioral differences among the model group, the positive control group, and the negative control group were observed during the experiment.
36 SD mice weighing […], half male and half female, were taken. The mice were randomly divided into 3 groups: a positive control group, a negative control group, and a model group. The compound sustained-release preparation (prepared in Example 1) was implanted into the back of each mouse in the model group before administration, and a challenge experiment was carried out on the second day after surgery.
During the formative period, methylamphetamine (2 mg/kg) was daily intraperitoneally injected into each mouse in the positive control group and the model group, an equal amount of normal saline was intraperitoneally injected into each mouse in the negative control group for 7 consecutive days. During the conversion period, the drug was withdrawn for 7 days without any treatment. […]

`CN[C@@H](C)Cc1ccccc1` [methylamphetamine] was tested, and the “activities of the mice in the positive control group (behavioral sensitization)” value was “significantly increased (P<0.05)”.
